For 61 compounds, IC50 results are on record in US20240116933A1, “INDAZOLE AND PYRAZOLOPYRIDINE COMPOUNDS AS INHIBITORS OF NLRP3 INFLAMMASOME” (BioAge Labs, Inc., priority 2022, published 2024).

Some results are limits rather than exact numbers.

As usually defined, the IC50 is the point on the concentration scale where inhibition reaches its midpoint. Higher therefore signals weaker potency in that assay.

The assay deals with T1, NLRP3 inflammasome (Homo sapiens, UniProt Q96P20).
T1 construct: endogenous in cells; host or cells: THP-1 cells (PMA-differentiated, LPS-primed, nigericin-stimulated)
T1 sequence (Q96P20 whole entry): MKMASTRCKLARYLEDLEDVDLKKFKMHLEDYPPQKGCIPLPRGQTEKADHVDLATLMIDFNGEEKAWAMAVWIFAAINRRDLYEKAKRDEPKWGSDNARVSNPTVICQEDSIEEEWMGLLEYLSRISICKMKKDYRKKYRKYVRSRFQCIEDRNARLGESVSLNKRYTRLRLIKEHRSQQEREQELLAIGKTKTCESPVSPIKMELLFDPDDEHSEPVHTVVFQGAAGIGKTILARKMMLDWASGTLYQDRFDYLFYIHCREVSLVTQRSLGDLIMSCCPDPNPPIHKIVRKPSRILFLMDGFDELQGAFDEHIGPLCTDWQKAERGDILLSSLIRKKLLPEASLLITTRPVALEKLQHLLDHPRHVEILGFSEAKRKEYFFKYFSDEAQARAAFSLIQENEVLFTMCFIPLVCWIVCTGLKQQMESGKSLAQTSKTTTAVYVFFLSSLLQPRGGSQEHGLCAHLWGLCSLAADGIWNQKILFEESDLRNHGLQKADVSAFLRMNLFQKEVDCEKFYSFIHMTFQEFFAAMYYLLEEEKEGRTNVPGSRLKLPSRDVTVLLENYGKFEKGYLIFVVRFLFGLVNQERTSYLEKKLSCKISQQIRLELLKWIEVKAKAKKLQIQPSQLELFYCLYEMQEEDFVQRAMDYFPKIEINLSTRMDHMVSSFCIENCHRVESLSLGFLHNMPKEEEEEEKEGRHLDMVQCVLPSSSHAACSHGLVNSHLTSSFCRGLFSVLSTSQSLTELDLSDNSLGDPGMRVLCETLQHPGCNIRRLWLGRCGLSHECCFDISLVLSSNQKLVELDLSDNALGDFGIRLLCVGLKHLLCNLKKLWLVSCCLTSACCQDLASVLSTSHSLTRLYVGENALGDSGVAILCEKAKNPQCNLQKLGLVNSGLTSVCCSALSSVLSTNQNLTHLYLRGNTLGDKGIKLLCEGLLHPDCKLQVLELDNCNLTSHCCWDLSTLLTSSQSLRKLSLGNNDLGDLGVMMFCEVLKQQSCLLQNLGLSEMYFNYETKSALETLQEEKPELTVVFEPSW
Briefly: THP-1 Cell-Based NLRP3 Activation Assay. The note with it: THP-1 cells, PMA, 100 ng/mL LPS 3 hrs, 30 min pre-incubation with test compound, 10 μM nigericin 1 hr. On the procedure:
THP-1 cells are cultured in complete media (CM) until they reach logarithmic growth and achieve a viability >90%. CM is composed of RPMI-1640 (+Glutamax)/10% fetal bovine serum/55 μM β-mercaptoethanol/pen/strep. Cells are spun down and resuspended to 1,000,000 cells/mL in CM containing either 20 nM or 500 nM PMA. 150,000 cells […] are then added to each well of a 96-well TC plate and incubated for either 24 hr or 3 hr, respectively, in a standard cell culture incubator (37° C.; 5% CO2). After this incubation, the plate is tilted and media carefully removed. 200 μL of CM containing 100 ng/mL LPS is then added to the wells and the cells incubated an additional 3 hrs. The media is again removed and replaced with Opti-Mem medium containing pre-determined dilutions of test compounds in replicate wells. After a 30 min pre-incubation with test compound, 10 μM nigericin (final concentration) in Opti-Mem medium with the corresponding concentration of compound is added to the wells for an additional 1 hr. Positive control wells contain 10 μM nigericin in Opti-Mem in the absence of test compound, while negative control wells contain Opti-Mem only. […] Once supernatants are removed, the relative viability of adherent cells in the 96-well TC plate are determined using a CellTiter-Glo® luminescent cell viability assay (Promega).
Regarding `Cc1nc(CO)c2cn[nH]c2c1CN(C)C(=O)c1ccc(-c2cccc(C#N)c2)c(OC2CC2)c1` [Compound 078], the IC50 is less than 1000 nM. Regarding `CCOc1cc(C(=O)N(CC)Cc2cnc(CO)c3cn[nH]c23)ccc1-c1cccc(F)c1` [Compound 097], the IC50 is less than 1000 nM.

`CCCOc1cc(C(=O)N(C)Cc2cnc(CO)c3cn[nH]c23)ccc1-c1cccc(F)c1` [Compound 147] displayed an IC50 of less than 1000 nM. As for `CCOc1cc(C(=O)N(C)Cc2cnc(C(C)O)c3cn[nH]c23)ccc1-c1cccc(C#N)c1` (stereo not shown) [Compound 029], the IC50 was less than 1000 nM. In the case of `CCOc1cc(C(=O)N(C)Cc2cc(OC(C)=O)cc3cn[nH]c23)ccc1-c1cccc(F)c1` [Compound 007], the IC50 was less than 1000 nM.

With `Cc1ncc(CN(C)C(=O)c2cc(F)c(-c3cccc(Cl)c3)c(OC3CC3)c2)c2[nH]ncc12` [Compound 048], the IC50 is less than 1000 nM. In the case of `CCOc1cc(C(=O)N(C)Cc2cc(O)cc3cn[nH]c23)cc(F)c1-c1ccccc1` [Compound 112], the IC50 was less than 1000 nM. For the compound `CCOc1cc(C(=O)N(C)Cc2cc(O)c(C)c3cn[nH]c23)ccc1-c1cccc(F)c1` [Compound 015], the IC50 is less than 1000 nM.

Take `CCOc1cc(C(=O)N(C)[C@H](C)c2ccc(CF)c3cn[nH]c23)ccc1-c1cccc(F)c1` (single isomer, unassigned) [Compound 169]: the IC50 was less than 10000 nM. Take `CN(Cc1cc(O)cc2cn[nH]c12)C(=O)c1cc(F)c(-c2cccc(C#N)c2)c(OC2CC2)c1` [Compound 111]: the IC50 was less than 1000 nM. The compound `CCOc1cc(C(=O)N(C)Cc2cnc(C)c3cn[nH]c23)cc(CF)c1-c1cccc(F)c1` [Compound 125] yielded an IC50 of less than 10000 nM. The same measure for `Cc1ncc(CN(C)C(=O)c2cc(F)c(-c3cccc(C#N)c3)c(OC3CC3)c2)c2[nH]ncc12` [Compound 065]: less than 1000 nM. The compound `CN(Cc1cnc(CO)c2cn[nH]c12)C(=O)c1ccc(-c2cccc(Cl)c2)c(OC2COC2)c1` [Compound 108] yielded an IC50 of less than 1000 nM.

The compound `CCOc1nc(C(=O)N(C)[C@H](C)c2ccc(CF)c3cn[nH]c23)ccc1-c1cccc(F)c1` [Compound 075] came in with an IC50 of less than 50000 nM.

`CCOc1cc(C(=O)N(C)Cc2c(C)nc(CO)c3cn[nH]c23)ccc1-c1cccc(F)c1` [Compound 037] had an IC50 of less than 1000 nM. For the compound `CCOc1cc(C(=O)N(C)Cc2cccc3[nH]ncc23)ccc1-c1cccc(F)c1` [Compound 129], the IC50 is less than 10000 nM.

`CCOc1cc(C(=O)N(C)Cc2cnc(C(C)O)c3cn[nH]c23)ccc1-c1cccc(Cl)c1` (stereo not shown) [Compound 030] displayed an IC50 of less than 1000 nM. `CN(Cc1cnc(CO)c2cn[nH]c12)C(=O)c1ccc(-c2cc(F)cc(F)c2)c(OC2COC2)c1` [Compound 155] returned an IC50 of less than 1000 nM. Consider `CCOc1cc(C(=O)N(C)Cc2cnc(CF)c3cn[nH]c23)ccc1C#CC1CC1` [Compound 001], for which the IC50 was less than 1000 nM. For the compound `CCOc1cc(C(=O)N(C)Cc2cnc(C(C)O)c3cn[nH]c23)ccc1-c1nc(Cl)cs1` (stereo not shown) [Compound 158], the IC50 is less than 1000 nM. As for `CC(C)Oc1cc(C(=O)N(C)Cc2cnc(CO)c3cn[nH]c23)ccc1-c1cccc(F)c1` [Compound 134], the IC50 is less than 1000 nM. In turn, `CC(C)Oc1cc(C(=O)N(C)Cc2cnc(CO)c3cn[nH]c23)ccc1-c1cc(F)cc(F)c1` [Compound 142] showed an IC50 of less than 1000 nM.

The compound `CCOc1cc(C(=O)N(C)Cc2ccc(CO)c3cn[nH]c23)ccc1-c1cccc(F)c1` [Compound 066] gave an IC50 of less than 1000 nM. Take `CC(C)Oc1cc(C(=O)N(C)Cc2cnc(C(C)O)c3cn[nH]c23)ccc1-c1cccc(Cl)c1` (stereo not shown) [Compound 141]: the IC50 was less than 1000 nM. For the compound `Cc1ncc(CN(C)C(=O)c2cc(F)c(-c3ccccc3)c(OC3CC3)c2)c2[nH]ncc12` [Compound 064], the IC50 is less than 1000 nM. `Cc1ncc2cn[nH]c2c1CN(C)C(=O)c1cc(F)c(-c2cccc(Cl)c2)c(OC2CC2)c1` [Compound 068] registered an IC50 of less than 1000 nM. Compound `CCOc1cc(C(=O)N(C)[C@@H](C)c2cc(F)cc3cn[nH]c23)ccc1-c1cccc(F)c1` [Compound 042] showed an IC50 of less than 1000 nM.

Take `CCOc1cc(C(=O)N(C)Cc2cnc(CO)c3cn[nH]c23)cc(F)c1-c1cc(F)cs1` [Compound 093]: the IC50 was less than 1000 nM.

`CCOc1cc(C(=O)N(C)Cc2cc(C(=O)OC)cc3cn[nH]c23)ccc1-c1cccc(F)c1` [Compound 008] came in with an IC50 of less than 10000 nM. Compound `CCOc1cc(C(=O)N(C)C(C)c2cnc(CF)c3cn[nH]c23)ccc1-c1cccc(F)c1` (stereo not shown) [Compound 055] showed an IC50 of less than 1000 nM. As for `CCOc1cc(C(=O)N(C)Cc2cnc(C(C)O)c3cn[nH]c23)ccc1-c1nccs1` (stereo not shown) [Compound 149], the IC50 was less than 10000 nM.

Turning to `CCOc1cc(C(=O)N(C)[C@@H](C)c2cccc3cn[nH]c23)ccc1-c1cccc(F)c1` [Compound 059], the IC50 was less than 1000 nM. On to `Cc1ncc([C@@H](C)N(C)C(=O)c2cc(F)c(-c3cccc(F)c3)c(OC3CC3)c2)c2[nH]ncc12` [Compound 034], for which the IC50 was less than 10000 nM. In the case of `CCOc1cc(C(=O)N(C)Cc2cnc(C(C)O)c3cn[nH]c23)cc(F)c1-c1cccc(C#N)c1` (stereo not shown) [Compound 090], the IC50 was less than 10000 nM.

As to `CC(O)c1ncc(CN(C)C(=O)c2cc(F)c(-c3cccc(Cl)c3)c(OC3CC3)c2)c2[nH]ncc12` (stereo not shown) [Compound 115], the IC50 was less than 1000 nM. `CCOc1cc(C(=O)N(C)Cc2cnc(C(C)O)c3cn[nH]c23)ccc1-c1ccccc1` (stereo not shown) [Compound 031] gave an IC50 of less than 1000 nM. `CCOc1cc(C(=O)N(C)Cc2cnc(C)c3cn[nH]c23)ccc1-c1cc(F)cs1` [Compound 140]: the IC50 was less than 10000 nM. Next, `CCOc1nc(C(=O)N(C)[C@@H](C)c2cnc(C)c3cn[nH]c23)ccc1-c1cccc(F)c1` [Compound 123]: less than 1000 nM; `CCN(Cc1cnc(CO)c2cn[nH]c12)C(=O)c1cc(F)c(-c2cccc(C#N)c2)c(OC2CC2)c1` [Compound 087]: less than 1000 nM.

Take `CCN(Cc1cnc(C(C)O)c2cn[nH]c12)C(=O)c1ccc(-c2cccc(F)c2)c(OC2CC2)c1` (stereo not shown) [Compound 179]: the IC50 is less than 1000 nM.

Regarding `CN(Cc1cnc(CO)c2cn[nH]c12)C(=O)c1cc(Cl)c(-c2cccc(Cl)c2)c(OC2CC2)c1` [Compound 161], the IC50 was less than 1000 nM. `CCOc1cc(C(=O)N(C)[C@@H](C)c2c(C)ncc3cn[nH]c23)ccc1-c1cccc(F)c1` [Compound 045]: the IC50 is less than 10000 nM. As for `CCOc1cc(C(=O)N(C)[C@@H](C)c2cnc(CO)c3cn[nH]c23)ccc1-c1cccc(F)c1` [Compound 160], the IC50 was less than 1000 nM. For the compound `CCOc1cc(C(=O)N(C)Cc2cnc(C)c3cn[nH]c23)ccc1-c1cccs1` [Compound 170], the half-inhibitory concentration (IC50) is less than 1000 nM. On to `CCOc1cc(C(=O)N(CC)Cc2cnc(CO)c3cn[nH]c23)ccc1-c1cccc(Cl)c1` [Compound 177], for which the IC50 is less than 1000 nM. In the case of `Cc1nc(CO)c2cn[nH]c2c1CN(C)C(=O)c1cc(F)c(-c2cccc(Cl)c2)c(OC2CC2)c1` [Compound 040], the IC50 was less than 1000 nM. Take `CCOc1cc(C(=O)N(C)[C@H](C)c2cc(F)cc3cn[nH]c23)ccc1-c1cccc(F)c1` [Compound 043]: the IC50 is less than 50000 nM. `CCOc1cc(C(=O)N(C)Cc2cnc(CO)c3cn[nH]c23)cc(Cl)c1-c1cccc(F)c1` [Compound 175] showed an IC50 of less than 10000 nM.

Compound `CN(Cc1cnc(CO)c2cn[nH]c12)C(=O)c1ccc(-c2cc(F)cc(Cl)c2)c(OC2COC2)c1` [Compound 152] gave an IC50 of less than 1000 nM. In the case of `CN(Cc1cc(O)cc2cn[nH]c12)C(=O)c1cc(F)c(-c2cccc(Cl)c2)c(OC2CC2)c1` [Compound 113], the IC50 is less than 1000 nM. The compound `CCOc1cc(C(=O)N(C)Cc2c(C)nc(C(C)O)c3cn[nH]c23)ccc1-c1cccc(F)c1` (stereo not shown) [Compound 079] returned an IC50 of less than 1000 nM. `CCN(Cc1cnc(CO)c2cn[nH]c12)C(=O)c1cc(F)c(-c2cccc(F)c2)c(OC2CC2)c1` [Compound 180] had an IC50 of less than 1000 nM. `CCOc1cc(C(=O)N(C)Cc2cnc(C(C)O)c3cn[nH]c23)cc(F)c1-c1cccs1` (stereo not shown) [Compound 154] gave an IC50 of less than 1000 nM. In the case of `CCOc1nc(C(=O)N(C)Cc2cc(O)cc3cn[nH]c23)ccc1-c1cccc(F)c1` [Compound 128], the IC50 was less than 10000 nM. The compound `Cc1nc(C)c2cn[nH]c2c1CN(C)C(=O)c1cc(F)c(-c2cccc(Cl)c2)c(OC2CC2)c1` [Compound 120] registered an IC50 of less than 1000 nM. `CCOc1cc(C(=O)N(C)Cc2cnc(C(C)O)c3cn[nH]c23)cc(F)c1-c1cc(C#N)cs1` (stereo not shown) [Compound 072] registered an IC50 of less than 10000 nM. For `CCOc1cc(C(=O)N(C)Cc2cnc(C(C)O)c3cn[nH]c23)cc(Cl)c1-c1cccc(F)c1` (stereo not shown) [Compound 156], the IC50 is less than 50000 nM. As to `CC(O)c1ncc(CN(C)C(=O)c2ccc(-c3ccc(Cl)s3)c(OC3CC3)c2)c2[nH]ncc12` (stereo not shown) [Compound 168], the IC50 was less than 1000 nM.

`CCCOc1cc(C(=O)N(C)Cc2cnc(CO)c3cn[nH]c23)cc(F)c1-c1cc(F)cc(F)c1` [Compound 136]: the IC50 was less than 1000 nM. `CCOc1cc(C(=O)N(C)Cc2cnc(C(C)F)c3cn[nH]c23)ccc1-c1cccc(F)c1` (stereo not shown) [Compound 070]: the IC50 was less than 1000 nM.

Regarding `CCOc1cc(C(=O)N(C)Cc2c(C)nc(CF)c3cn[nH]c23)ccc1-c1cccc(F)c1` [Compound 173], the 50% inhibitory concentration (IC50) was less than 1000 nM.
